Results as given in patent US9243225B2, “Methods of obtaining cell populations enriched with desired cells” (HADASIT MEDICAL RESEARCH SERVICES & DEVELOPMENT LIMITED, priority 2010, dated 2016).

Assays:
[1] = test system: hES1-derived mixed culture of neurons, neural precursors/progenitors (NPs) and undifferentiated cells; assay: Paclitaxel treatment of hESC-derived differentiating neural cultures (morphology, immunostaining); type: cell-based, human
Protocol: hES1 colonies grown on HFF feeders in DMEM supplemented with knockout (KO) serum replacement, PenStrep, non-essential amino-acids and glutamine (Invitrogen, USA), were enzymatically detached by collagenase. Intact colonies were transferred to non-adhesive culture plates to form neurospheres in NSC medium (DMEM-F12 medium, N2, B27, PenStrep and Glutamine) supplemented with noggin (Peprotech Asia, Rehovot, Israel) and 20 ng/ml bFGF. Spheres were grown for 3-5 weeks in suspension, collected, triturated and plated on 10 μg laminin/poly-D-lysine-coated coverslips in NSC medium supplemented with FGF8 and SHH for 6-8-days. At this stage, cells were treated with the appropriate concentrations of paclitaxel for 18-24 hours. Paclitaxel was then removed and cells were allowed to recuperate and continue with the differentiation process for additional 6-8 days in NSC medium with BDNF, GDNF, TGFβ3, NT4, cAMP, ascorbic acid.
Alternatively, cells at the end of the differentiation process—the cells are grown as spheres in suspension for 3-5 weeks and 2 more weeks as adherent culture: 1 week FGF8/SHH+1 week factors) are subjected to paclitaxel treatment.
Paclitaxel was added to cells at 2 ranges of concentrations of 0.2-20 nM and 100-500 nM. Cells are incubated at 37° C., in 5% CO2, 5% O2. Incubation times vary between 2 hours and 48 hours.

[2] = test system: tumor-forming cells in transplanted hESC-derived cell preparations; assay: Transplantation of paclitaxel-treated differentiated hESC into 6-OH dopamine-lesioned (Parkinsonian) rats; type: in vivo, rat
Protocol: 6-Hydroxydopamine (8 μg/rat) was stereotaxically injected (in a 4 μL solution) into the right substantia nigra of male Sprague-Dawley rats weighing 250-280 g; coordinates of injection: P=4.8, L=1.7, H=−8.6 from bregma. Fourteen days after 6-hydroxydopamine injection, rats were selected for transplantation if they had >350 rotations per hour after s.c. injection of apomorphine ([…]) (apomorphine being injected after 14 days) and, if 2 days later (after apomorphine injection) they also had >360 (mean 520±38) rotations per hour after i.p. injection of D-amphetamine (4 mg/kg).
Two to five days later (after the D-amphetamine injection), differentiated hESC that were induced according to the above specified protocols, either paclitaxel-treated or control-treated (DMSO), were detached with collagenase and were transplanted, 400,000 cells in 12 μL/animal along two tracts per striatum (coordinates: antero-medial tract, A=1, L=2, H=−7.5 to −4; posterio-lateral tract, A−P=0, L=3.5, H=−7.5 to −4.5). All rats received daily i.p. injections of 10 mg cyclosporine A per kg (Sandimmune; Novartis, Basel, Switzerland).
Rats were euthanized by overdose of pentobarbital and perfused with 4% paraformaldehyde saline. Serial 8 μm coronal frozen sections were prepared. […]

## CC(=O)O[C@H]1C(=O)[C@@]2(C)[C@H]([C@H](OC(=O)c3ccccc3)[C@]3(O)C[C@H](OC(=O)[C@H](O)[C@@H](NC(=O)c4ccccc4)c4ccccc4)C(C)=C1C3(C)C)[C@]1(OC(C)=O)CO[C@@H]1C[C@@H]2O [paclitaxel]
[1]; after treatment with paclitaxel, FIG. 1C
  effect on mature cells with typical neuronal morphology: unaffected by the treatment
[1]; after treatment with paclitaxel, FIGS. 1A-1C
  effect on undifferentiated cells and early neural progenitors that form rosette structures: undergo apoptosis
[1]; mixed culture of neurons and NPs after paclitaxel treatment, FIG. 2C
  β-III tubulin expressing cells (neuronal marker) in culture: enriched for β-III tubulin expressing cells
[1]; mixed culture of neurons and NPs after paclitaxel treatment, FIG. 2D
  nestin-positive cells (NP marker) in culture: reduced number of nestin-positive cells
[2]; cell preparations treated with 20-50 nM paclitaxel, 9 animals, 5-8 weeks post transplantation, all 6 controls with untreated cells developed large tumors
  tumor development after transplantation of treated cells: none developed tumors
[2]; grafted cells marked by human nuclear antigen in rat striatum, FIGS. 4A-4C
  tyrosine hydroxylase (dopaminergic marker) expression of grafted paclitaxel-treated cells: express tyrosine hydroxylase
